Experimental data as given in PubChem BioAssay AID1195 (EPA DSSTox, 2008).

Tested on: human maximum recommended daily dose, FDA database
Experiment: DSSTox (FDAMDD) FDA Maximum (Recommended) Daily Dose Database
Details: stronger effect = lower value
Method in brief: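 MRDD values come from clinical trials with daily oral dosing, usually for 3–12 months, for the average adult, in mg/day converted to mg/kg-bw/day assuming 60 kg. Antineoplastic mg/m2 doses are divided by 37. Activity score maps log10(1/MRDD mmol) onto 1–100.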

[1] = TherapeuticCategory: diagnostic aid
[2] = TherapeuticCategory: antibacterial
[3] = TherapeuticCategory: antihypertensive
[4] = TherapeuticCategory: antineoplastic
[5] = TherapeuticCategory: antidiabetic
[6] = TherapeuticCategory: antidepressant
[7] = TherapeuticCategory: glucocorticoid

## OC1C(O)C(O)C(O)C(O)C1O (stereo not drawn)
TherapeuticCategory: vitamin B complex, lipotropic
  maximum recommended daily dose (mmol/kg-bw/day): 0.555

## CN(C/C=C/C#CC(C)(C)C)Cc1cccc2ccccc12
TherapeuticCategory: topical antifungal
  maximum recommended daily dose (mmol/kg-bw/day): 0.0926

## CCOC(=O)CCCCCCCCC(C)c1ccc(I)cc1 (stereo not drawn)
[1]
  maximum recommended daily dose (mmol/kg-bw/day): 0.3

## C#C[C@]1(O)CC[C@H]2[C@@H]3CCC4=C(CCC(=O)C4)[C@H]3CC[C@@]21C
TherapeuticCategory: progestogen
  maximum recommended daily dose (mmol/kg-bw/day): 0.00224

## O=C1CN(/N=C/c2ccc(-c3ccc([N+](=O)[O-])cc3)o2)C(=O)N1
TherapeuticCategory: skeletal muscle relaxant
  maximum recommended daily dose (mmol/kg-bw/day): 0.0212

## Cc1nnc(SCC2=C(C(=O)O)N3C(=O)[C@@H](NC(=O)Cn4cnnn4)[C@H]3SC2)s1
[2]
  maximum recommended daily dose (mmol/kg-bw/day): 0.147

## COC(=O)C1=CCCN(C)C1
TherapeuticCategory: anthelmintic
  maximum recommended daily dose (mmol/kg-bw/day): 0.000215

## CC(C)(C)NCC(O)CSc1nc(-c2ccc(C(N)=O)s2)cs1 (stereo not drawn)
TherapeuticCategory: antihypertensive, antianginal, antiarrhythmic
  maximum recommended daily dose (mmol/kg-bw/day): 0.000896

## CC(=O)O[C@H]1C[C@H](O[C@H]2[C@@H](O)C[C@H](O[C@H]3[C@@H](O)C[C@H](OC4CC[C@@]5(C)C(CC[C@@H]6[C@@H]5C[C@@H](O)[C@]5(C)[C@@H](C7=CC(=O)OC7)[C@@H](O)C[C@]65O)C4)O[C@@H]3C)O[C@@H]2C)O[C@H](C)[C@H]1O[C@@H]1O[C@H](CO)[C@@H](O)[C@H](O)[C@H]1O (stereo partly drawn)
TherapeuticCategory: cardiotonic
  maximum recommended daily dose (mmol/kg-bw/day): 3.33e-05

## O=c1c(CO)c/c(=N/Nc2ccc(S(=O)(=O)O)c3ccccc23)c(=O)/c1=N/Nc1ccc(S(=O)(=O)O)c2ccccc12
TherapeuticCategory: food additive
  maximum recommended daily dose (mmol/kg-bw/day): 0.0023

## CCOC(=O)C(C)(C)Oc1ccc(Cl)cc1
TherapeuticCategory: antihyperlipoproteinemic
  maximum recommended daily dose (mmol/kg-bw/day): 0.137

## CO/N=C(/C(=O)N[C@@H]1C(=O)N2C(C(=O)OC(C)OC(=O)C(C)(C)OC)=C(COC(N)=O)CS[C@H]12)c1ccco1 (stereo partly drawn)
[2]
  maximum recommended daily dose (mmol/kg-bw/day): 0.0294

## CN[C@@H]1[C@H](O[C@H]2[C@H](O[C@H]3[C@H](O)[C@@H](O)[C@H](N=C(N)N)[C@@H](O)[C@@H]3N=C(N)N)O[C@@H](C)[C@]2(O)CO)O[C@@H](CO)[C@H](O)[C@H]1O
[2]
  maximum recommended daily dose (mmol/kg-bw/day): 0.0286

## CCOC(=O)N1CCC(=C2c3ccc(Cl)cc3CCc3cccnc32)CC1
TherapeuticCategory: antihistaminic
  maximum recommended daily dose (mmol/kg-bw/day): 0.000436

## COc1ccc2c(c1)N(C[C@H](C)CN(C)C)c1ccccc1S2
TherapeuticCategory: analgesic
  maximum recommended daily dose (mmol/kg-bw/day): 0.0101

## O=C(O)c1[nH]n(-c2ccc(S(=O)(=O)O)cc2)c(=O)c1N=Nc1ccc(S(=O)(=O)O)cc1
TherapeuticCategory: dye
  maximum recommended daily dose (mmol/kg-bw/day): 0.014

## CC1=C(C(=O)O)N2C(=O)[C@@H](NC(=O)[C@H](N)C3=CCC=CC3)[C@H]2SC1
[2]
  maximum recommended daily dose (mmol/kg-bw/day): 0.191

## CCOC(=O)[C@H](CCc1ccccc1)N[C@@H](C)C(=O)N1CCC[C@H]1C(=O)O
[3]
  maximum recommended daily dose (mmol/kg-bw/day): 0.00177

## CC(C)C[C@H]1C(=O)N2CCC[C@H]2[C@]2(O)O[C@](NC(=O)[C@@H]3C=C4c5cccc6[nH]c(Br)c(c56)C[C@H]4N(C)C3)(C(C)C)C(=O)N12
TherapeuticCategory: enzyme inhibitor, antiparkinsonian
  maximum recommended daily dose (mmol/kg-bw/day): 0.00255

## CC(O)Cn1cnc2c1c(=O)n(C)c(=O)n2C (stereo not drawn)
TherapeuticCategory: bronchodilator, vasodilator, smooth muscle relaxant
  maximum recommended daily dose (mmol/kg-bw/day): 0.168

## CCC(C)C(CC)C(=O)NC(N)=O (stereo not drawn)
TherapeuticCategory: hypnotic
  maximum recommended daily dose (mmol/kg-bw/day): 0.0358

## Cc1cc(=O)[nH]c(=S)[nH]1
TherapeuticCategory: thyroid inhibitor
  maximum recommended daily dose (mmol/kg-bw/day): 0.0703

## CC(C)N=C(N)/N=C(\N)Nc1ccc(Cl)c(Cl)c1
TherapeuticCategory: antimalarial
  maximum recommended daily dose (mmol/kg-bw/day): 0.00116

## Nc1ncnc2c1ncn2[C@@H]1O[C@H](COP(=O)(O)OP(=O)(O)OP(=O)(O)O)[C@@H](O)[C@H]1O
TherapeuticCategory: coenzyme
  maximum recommended daily dose (mmol/kg-bw/day): 0.000394

## CN(C)CCCN1c2ccccc2Sc2ccc(C(F)(F)F)cc21
TherapeuticCategory: antipsychotic
  maximum recommended daily dose (mmol/kg-bw/day): 0.00709

## O=C(O)c1cc(N=Nc2ccc(O)c(C(=O)O)c2)ccc1O
TherapeuticCategory: treatment of ulcerative colitis
  maximum recommended daily dose (mmol/kg-bw/day): 0.0553

## O=c1[nH]cc(F)c(=O)[nH]1
[4]
  maximum recommended daily dose (mmol/kg-bw/day): 0.0923

## Cc1ncc(CO)c(CO)c1O
TherapeuticCategory: enzyme cofactor vitamin
  maximum recommended daily dose (mmol/kg-bw/day): 0.0394

## CN(CCOc1ccc(CC2SC(=O)NC2=O)cc1)c1ccccn1 (stereo not drawn)
[5]
  maximum recommended daily dose (mmol/kg-bw/day): 0.000281

## C/C(=C(/CCO)SSCC1CCCO1)N(C=O)Cc1cnc(C)nc1N (stereo not drawn)
TherapeuticCategory: enzyme cofactor
  maximum recommended daily dose (mmol/kg-bw/day): 0.00419

## C1CCC(C(CC2CCCCN2)C2CCCCC2)CC1 (stereo not drawn)
TherapeuticCategory: vasodilator, Ca channel blocker, diuretic
  maximum recommended daily dose (mmol/kg-bw/day): 0.018

## CC(C)NCC(O)COc1cccc2[nH]ccc12 (stereo not drawn)
TherapeuticCategory: antihypertensive, antianginal, antiarrhythmic, antiglaucomic
  maximum recommended daily dose (mmol/kg-bw/day): 0.00403

## O=C(O)C(Cl)Cl
TherapeuticCategory: caustic, keratolytic, topical astringent
  maximum recommended daily dose (mmol/kg-bw/day): 0.517

## CN1CCN2c3ncccc3Cc3ccccc3C2C1 (stereo not drawn)
[6]
  maximum recommended daily dose (mmol/kg-bw/day): 0.00283

## N[C@@H](C(=O)N[C@@H]1C(=O)N2C(C(=O)O)=C(Cl)CS[C@H]12)c1ccccc1
[2]
  maximum recommended daily dose (mmol/kg-bw/day): 0.068

## CCN(CCCCOC(=O)c1ccc(OC)c(OC)c1)C(C)Cc1ccc(OC)cc1 (stereo not drawn)
TherapeuticCategory: antispasmodic
  maximum recommended daily dose (mmol/kg-bw/day): 0.0157

## CCN(CC)CCc1nc(-c2ccccc2)no1
TherapeuticCategory: anti inflammatory
  maximum recommended daily dose (mmol/kg-bw/day): 0.0136

## OCCN1C[C@H](O)[C@@H](O)[C@H](O)[C@H]1CO
[5]
  maximum recommended daily dose (mmol/kg-bw/day): 0.0241

## CCNC(C)Cc1cccc(C(F)(F)F)c1 (stereo not drawn)
TherapeuticCategory: anorexic
  maximum recommended daily dose (mmol/kg-bw/day): 0.00865

## CN=C(NC)NCc1ccccc1
[3]
  maximum recommended daily dose (mmol/kg-bw/day): 0.0188

## Cc1c(C(=O)O)c(O)cc2c1C(=O)c1c(O)c([C@@H]3O[C@H](CO)[C@@H](O)[C@H](O)[C@H]3O)c(O)c(O)c1C2=O
TherapeuticCategory: none
  maximum recommended daily dose (mmol/kg-bw/day): 0.0169

## Fc1ccc([C@@H]2CCNC[C@H]2COc2ccc3c(c2)OCO3)cc1
[6]
  maximum recommended daily dose (mmol/kg-bw/day): 0.00253

## N=C(N)c1ccc(N=NNc2ccc(C(=N)N)cc2)cc1 (tested in a mixture with another compound)
TherapeuticCategory: antiprotozoal
  maximum recommended daily dose (mmol/kg-bw/day): 0.0097

## CCSc1ccc2c(c1)N(CCCN1CCN(C)CC1)c1ccccc1S2
TherapeuticCategory: antiemetic
  maximum recommended daily dose (mmol/kg-bw/day): 0.00125

## CN(CCCN1c2ccccc2CCc2ccccc21)CC(=O)c1ccc(Cl)cc1
[6]
  maximum recommended daily dose (mmol/kg-bw/day): 0.00835

## CC(=O)OCC(=O)[C@@]1(OC(=O)C(C)C)[C@@H](C)C[C@H]2[C@@H]3CCC4=CC(=O)C=C[C@]4(C)[C@@]3(F)[C@@H](O)C[C@@]21C
[7]
  maximum recommended daily dose (mmol/kg-bw/day): 0.000297

## NCCCCCC(=O)O
TherapeuticCategory: hemostatic
  maximum recommended daily dose (mmol/kg-bw/day): 1.52

## CC(=O)OCC(=O)[C@@]1(O)CC[C@H]2[C@@H]3CCC4=CC(=O)C=C[C@]4(C)[C@H]3[C@@H](O)C[C@@]21C
[7]
  maximum recommended daily dose (mmol/kg-bw/day): 0.00827

## COc1cc(NS(=O)(=O)c2ccc(N)cc2)c(OC)nn1
[2]
  maximum recommended daily dose (mmol/kg-bw/day): 0.161

## NS(=O)(=O)c1cc(C(=O)O)c(NCc2ccco2)cc1Cl
TherapeuticCategory: diuretic, antihypertensive
  maximum recommended daily dose (mmol/kg-bw/day): 0.0302

## Cc1ccc(S(=O)(=O)NC(=O)NN2CCCCCC2)cc1
[5]
  maximum recommended daily dose (mmol/kg-bw/day): 0.0536

## CN(C)C=Nc1c(I)cc(I)c(CCC(=O)O)c1I
[1]
  maximum recommended daily dose (mmol/kg-bw/day): 0.167

## CC(=O)OCC(=O)[C@H]1CC[C@H]2[C@@H]3CCC4=CC(=O)CC[C@]4(C)[C@H]3CC[C@]12C
TherapeuticCategory: mineralcorticoid
  maximum recommended daily dose (mmol/kg-bw/day): 0.00448

## CN1CCC(=C2c3ccccc3C=Cc3ccccc32)CC1
TherapeuticCategory: antihistaminic, antipruritic
  maximum recommended daily dose (mmol/kg-bw/day): 0.00174

## C#CC1(OC(N)=O)CCCCC1
TherapeuticCategory: sedative, hypnotic
  maximum recommended daily dose (mmol/kg-bw/day): 0.0999

## COc1ccc(CCN2CCC(Nc3nc4ccccc4n3Cc3ccc(F)cc3)CC2)cc1
TherapeuticCategory: antiallergic, antiarrhythmic
  maximum recommended daily dose (mmol/kg-bw/day): 0.000364

## CN[C@@H](C)[C@H](O)c1ccccc1
TherapeuticCategory: bronchodilator
  maximum recommended daily dose (mmol/kg-bw/day): 0.0101

## O=c1ccc2ccccc2o1
TherapeuticCategory: pharmaceutic aid
  maximum recommended daily dose (mmol/kg-bw/day): 0.0114

## CN1CCc2cccc3c2[C@H]1Cc1ccc(O)c(O)c1-3
TherapeuticCategory: emetic
  maximum recommended daily dose (mmol/kg-bw/day): 0.00625

## CN[C@@H]1[C@@H](O)[C@@H](O[C@@H]2[C@@H](O)[C@H](OC3OC(CN)=CCC3N)[C@@H](N)C[C@H]2N)OC[C@]1(C)O (stereo partly drawn)
[2]
  maximum recommended daily dose (mmol/kg-bw/day): 0.0067

## CCNNC(=O)[C@@H]1[C@H](c2cc(OC)c(OC)c(OC)c2)c2cc3c(cc2[C@H](O)[C@H]1CO)OCO3
[4]
  maximum recommended daily dose (mmol/kg-bw/day): 0.00702

## CC1=C(/C=C/C(C)=C/C=C/C(C)=C\C(=O)O)C(C)(C)CCC1
TherapeuticCategory: keratolytic
  maximum recommended daily dose (mmol/kg-bw/day): 0.00666

## Nc1nnc(-c2cccc(Cl)c2Cl)c(N)n1
TherapeuticCategory: anticonvulsant
  maximum recommended daily dose (mmol/kg-bw/day): 0.026
